Assay results reported in US7635716B2, “Substituted cyclopentanes or cyclopentanones as therapeutic agents” (Allergan, Inc., priority 2005, dated 2009).
pKi: −log10 of the molar value. Like-named read-outs stand apart in the source and are kept apart here.

What was measured:
[1] = molecular target: T1, hEP4 (Homo sapiens, UniProt P35408); assay: Radioligand binding, [3H]PGE2, HEK-293 cells stably expressing EP4 receptors
T1 construct: expressed in transfected cells; host or cells: HEK-293 cells (plasma membrane fraction)
T1 sequence (P35408 whole entry): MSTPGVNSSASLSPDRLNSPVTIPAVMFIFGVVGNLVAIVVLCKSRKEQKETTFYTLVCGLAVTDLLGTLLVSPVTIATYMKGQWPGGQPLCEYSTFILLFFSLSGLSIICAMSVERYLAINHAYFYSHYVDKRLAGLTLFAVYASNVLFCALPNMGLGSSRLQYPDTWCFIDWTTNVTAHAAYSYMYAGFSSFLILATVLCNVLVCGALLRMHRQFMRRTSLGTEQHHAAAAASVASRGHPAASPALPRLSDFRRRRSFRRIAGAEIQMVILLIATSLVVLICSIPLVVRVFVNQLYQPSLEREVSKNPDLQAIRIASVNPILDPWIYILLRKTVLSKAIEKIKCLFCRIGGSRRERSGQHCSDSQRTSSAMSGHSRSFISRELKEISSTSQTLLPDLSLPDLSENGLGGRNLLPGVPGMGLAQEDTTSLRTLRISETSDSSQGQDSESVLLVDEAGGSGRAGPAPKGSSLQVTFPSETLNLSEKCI
Protocol: (§1) HEK-293 cells stably expressing the human or feline FP receptor, or EP1, EP2, or EP4 receptors were washed with TME buffer, scraped from the bottom of the flasks, and homogenized for 30 sec using a Brinkman PT 10/35 polytron. TME buffer was added to achieve a final 40 ml volume in the centrifuge tubes (the composition of TME is 100 mM TRIS base, 20 mM MgCl2, […]; 10N HCl is added to achieve a pH of 7.4).
(§2) The cell homogenate was centrifuged at 19000 r.p.m. for 20 min at 4° C. using a Beckman Ti-60 rotor. The resultant pellet was resuspended in TME buffer to give a final 1 mg/ml protein concentration, as determined by Biorad assay. Radioligand binding competition assays vs. [^3H—]17 phenyl PGF2. (5 nM) were performed in a 100 μl volume for 60 min. Binding reactions were started by adding plasma membrane fraction. The reaction was terminated by the addition of 4 ml ice-cold TRIS-HCl buffer and rapid filtration through glass fiber GF/B filters using a Brandel cell harvester. The filters were washed 3 times with ice-cold buffer and oven dried for one hour.
[^3H—] PGE2 (specific activity 180 Ci mmol) was used as the radioligand for EP receptors. [^3H] 17-phenyl PGF2α was employed for FP receptor binding studies. […] A 200 μl assay volume was used. Incubations were for 60 min at 25° C. and were terminated by the addition of 4 ml of ice-cold 50 mM TRIS-HCl, followed by rapid filtration through Whatman GF/B filters and three additional 4 ml washes in a cell harvester (Brandel). Competition studies were performed using a final concentration of 5 nM [^3H]-PGE2, or 5 nM [^3H] 17-phenyl PGF2α and non-specific binding determined with 10^−5M of unlabeled PGE2, or 17-phenyl PGF2α, according to receptor subtype studied.

[2] = molecular target: hEP2 (Homo sapiens, UniProt P43116); assay: Competition binding, [3H]PGE2, HEK 293 cells stably expressing human EP2 receptors; parameters: expressed in transfected cells; host or cells: HEK 293 cells (membranes or whole cells)
Chain of hEP2 (P43116 whole entry): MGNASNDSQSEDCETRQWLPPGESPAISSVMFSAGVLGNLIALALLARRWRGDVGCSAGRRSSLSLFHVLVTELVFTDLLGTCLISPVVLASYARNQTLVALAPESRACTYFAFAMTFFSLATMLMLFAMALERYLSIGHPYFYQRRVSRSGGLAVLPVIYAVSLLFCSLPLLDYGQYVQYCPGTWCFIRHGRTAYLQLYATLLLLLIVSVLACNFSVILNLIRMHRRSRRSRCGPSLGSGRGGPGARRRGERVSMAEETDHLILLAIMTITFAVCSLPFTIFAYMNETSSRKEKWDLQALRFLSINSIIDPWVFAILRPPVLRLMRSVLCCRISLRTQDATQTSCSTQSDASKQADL
Protocol: Competition binding experiments were performed in a medium containing Hank's balanced salt solution, Hepes 20 mM, pH 7.3, membranes (˜60 μg protein) or 2×10^5 cells from HEK 293 cells stably expressing human EP2 receptors, [^3H]PGE2 (10 nM) and various concentrations of test compounds in a total volume of 300 μL. Reaction mixtures were incubated at 23° C. for 60 min, and were filtered over Whatman GF/B filters under vacuum. Filters were washed three times with 5 ml ice-cold buffer containing 50 mM Tris/HCl (pH 7.3). Non-specific binding was estimated in the presence of excess unlabeled PGE2 (10 μM). Binding data fitted to the binding model for a single class of binding sites, using nonlinear regression analysis. IC50 values thus obtained were converted to Ki using the equation of Ki=(IC50/(1+[L]/KD) where [L] represents PGE2 concentration (10 nM) and KD the dissociation constant for [^3H]PGE2 at human EP2 receptors (40 nM).
as §1, §2
[^3H—] PGE2 (specific activity 180 Ci mmol) was used as the radioligand for EP receptors. [^3H] 17-phenyl PGF2α was employed for FP receptor binding studies. Binding studies employing EP1, EP2, EP4 and FP receptors were performed in duplicate in at least three separate experiments. A 200 μl assay volume was used. Incubations were for 60 min at 25° C. and were terminated by the addition of 4 ml of ice-cold 50 mM TRIS-HCl, followed by rapid filtration through Whatman GF/B filters and three additional 4 ml washes in a cell harvester (Brandel). Competition studies were performed using a final concentration of 5 nM [^3H]-PGE2, or 5 nM [^3H] 17-phenyl PGF2α and non-specific binding determined with 10^−5M of unlabeled PGE2, or 17-phenyl PGF2α, according to receptor subtype studied.

[3] = Table 1, first part, triplicate, read-out: binding data (Ki) hEP4
[4] = Table 1, first part, triplicate, read-out: binding data (Ki) hEP2
[5] = Table 1, second part, read-out: hEP4 Ki
[6] = Table 1, second part, read-out: hEP2 Ki

Molecule | pKi [1, 3] | pKi [2, 4] | pKi [1, 5] | pKi [2, 6]
O=C(O)CCCCCC[C@H]1C(=O)CC[C@@H]1COc1ccccc1 [Example 6, 7-((1R,5S)-2-Oxo-5-phenoxymethyl-cyclopentyl)-heptanoic acid] | 5.58 | 5.20 | – | –
O=C(O)CCC/C=C\C[C@@H]1[C@@H](COc2ccccc2)[C@H](O)C[C@H]1Cl [Example 8, (Z)-7-((1R,2S,3R,5R)-5-Chloro-3-hydroxy-2-phenoxymethyl-cyclopentyl)-hept-5-enoic acid] | < 5.00 | 5.90 | < 5.00 | –
(Z)-7-((1R,2S,3R)-3-Hydroxy-5-oxo-2-phenoxymethyl-cyclopentyl)-hept-5-enoic acid [Example 4] | < 5.00 | 4.87 | < 5.00 | < 5.00
(Z)-7-((1R,5S)-2-Oxo-5-phenoxymethyl-cyclopent-3-enyl)-hept-5-enoic acid [Example 3] | < 5.00 | < 5.00 | < 5.00 | 4.87

Now from value to molecule:

pKi [1, 3] | pKi [2, 4] | pKi [1, 5] | pKi [2, 6] | Molecule
< 5.00 | 5.77 | < 5.00 | – | O=C(O)CCCCCC[C@@H]1[C@@H](COc2ccccc2)[C@H](O)C[C@H]1Cl [Example 10, 7-((1R,2S,3R,5R)-5-Chloro-3-hydroxy-2-phenoxymethyl-cyclopentyl)-heptanoic acid]
6.03 | 7.92 | 6.03 | 7.92 | O=C(O)CCC/C=C\C[C@@H]1[C@@H](COc2cc(Cl)cc(Cl)c2)[C@H](O)C[C@H]1Cl [Example 12, (Z)-7-[(1R,2S,3R,5R)-5-Chloro-2-(3,5-dichloro-phenoxymethyl)-3-hydroxy-cyclopentyl]-hept-5-enoic acid]
5.52 | 7.12 | – | – | O=C(O)CCCCCC[C@@H]1[C@@H](COc2cc(Cl)cc(Cl)c2)[C@H](O)C[C@H]1Cl [Example 14, 7-[(1R,2S,3R,5R)-5-Chloro-2-(3,5-dichloro-phenoxymethyl)-3-hydroxy-cyclopentyl]-heptanoic acid]
